Source: BindingDB's records for patent US20250313563 (The Broad Institute, 2025)
Where “and” joins values, the source holds several entries; their conditions need not be identical. Equal values may be shown once.

Experiments:
[1] = biological target: Glycogen synthase kinase-3 alpha (Homo sapiens, UniProt P49840); test: TR-FRET Assay
Procedure, shortened: (§1)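 30 min preinc w/ cpd in assay buffer → kinase rxn → EDTA quench → add detection mix (40 nM SA-d2, 2 nM Tb-pSer641 Ab) → TR-FRET read.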

[2] = biological target: Glycogen synthase kinase-3 beta (Homo sapiens, UniProt P49841); test: TR-FRET Assay
Sequence of Glycogen synthase kinase-3 beta (P49841 whole entry): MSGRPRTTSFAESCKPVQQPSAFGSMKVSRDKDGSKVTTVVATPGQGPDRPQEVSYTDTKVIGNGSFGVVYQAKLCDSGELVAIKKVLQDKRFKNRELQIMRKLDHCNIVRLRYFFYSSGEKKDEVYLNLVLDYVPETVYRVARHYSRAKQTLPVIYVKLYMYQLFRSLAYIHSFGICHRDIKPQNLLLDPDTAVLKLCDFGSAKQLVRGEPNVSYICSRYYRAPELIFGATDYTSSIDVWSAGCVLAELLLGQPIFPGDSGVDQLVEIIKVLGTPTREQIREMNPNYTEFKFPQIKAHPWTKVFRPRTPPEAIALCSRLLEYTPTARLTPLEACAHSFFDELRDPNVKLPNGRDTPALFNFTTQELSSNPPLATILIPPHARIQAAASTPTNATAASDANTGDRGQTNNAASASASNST
Procedure, shortened: as §1

Sequence of Glycogen synthase kinase-3 alpha (P49840 whole entry): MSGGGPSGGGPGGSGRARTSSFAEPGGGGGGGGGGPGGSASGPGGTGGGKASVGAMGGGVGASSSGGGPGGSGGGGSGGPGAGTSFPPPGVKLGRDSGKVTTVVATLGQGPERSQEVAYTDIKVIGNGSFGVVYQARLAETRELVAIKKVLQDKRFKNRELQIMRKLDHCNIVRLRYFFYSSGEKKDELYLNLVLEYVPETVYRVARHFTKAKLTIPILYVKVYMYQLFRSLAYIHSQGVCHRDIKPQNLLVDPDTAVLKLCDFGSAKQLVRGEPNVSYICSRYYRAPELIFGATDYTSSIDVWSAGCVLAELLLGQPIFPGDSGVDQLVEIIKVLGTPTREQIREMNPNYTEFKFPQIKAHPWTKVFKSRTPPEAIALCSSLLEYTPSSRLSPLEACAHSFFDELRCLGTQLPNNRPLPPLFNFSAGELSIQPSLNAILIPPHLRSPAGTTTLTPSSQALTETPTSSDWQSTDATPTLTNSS

SMILES | IC50 [1] | IC50 [2]
CC1(C)CC(=O)C2=C(C1)NC1=C(CN=N1)[C@]21C[C@H](n2cccn2)C1 [US20250313563, Compound 884005] | < 100 nM | < 100 nM
CC(C)[C@@H]1C[C@]2(CCO1)C1=C(N=NC1)NC1=C2C(=O)CC(C)(C)C1 [US20250313563, Compound 884013] | 1000 to 5000 nM | > 5000 nM
CC(C)[C@H]1C[C@@]2(CCO1)C1=C(N=NC1)NC1=C2C(=O)CC(C)(C)C1 [US20250313563, Compound 884014] | 1000 to 5000 nM | > 5000 nM
CC1(C)CC(=O)C2=C(C1)NC1=C(CN=N1)[C@]21CCO[C@@H](C(F)(F)F)C1 [US20250313563, Compound 884021] | 100 to 1000 nM | 100 to 1000 nM
CC1(C)CC(=O)C2=C(C1)NC1=C(CN=N1)[C@@]21CCO[C@H](C(F)(F)F)C1 [US20250313563, Compound 884022] | 100 to 1000 nM | 100 to 1000 nM
CC1(C)CC(=O)C2=C(C1)NC1=C(CN=N1)[C@]21CCO[C@H](C(F)(F)F)C1 [US20250313563, Compound 884023] | 1000 to 5000 nM | > 5000 nM
CC1(C)CC(=O)C2=C(C1)NC1=C(CN=N1)[C@@]21CCO[C@@H](C(F)(F)F)C1 [US20250313563, Compound 884024] | 1000 to 5000 nM | > 5000 nM
CC1(C)CCC2(CC1)C1=C(N=NC1)NC1=C2C(=O)CC(C)(C)C1 [US20250313563, Compound 884107] | < 100 nM | 100 to 1000 nM
CCN(C(C)=O)c1cccc(C2(CC)C3=CN=NC3NC3=C2C(=O)CC(C)(C)C3)c1 (centres undefined) [US20250313563, Compound 884109] | < 100 nM | < 100 nM
CCC1(c2cccc(N(Cc3ccccc3)C(C)=O)c2)C2=CN=NC2NC2=C1C(=O)CC(C)(C)C2 (centres undefined) [US20250313563, Compound 884110] | < 100 nM | < 100 nM
O=C1CCCC2=C1C1(CCOCC1)C1=C(N=NC1)N2 [US20250313563, Compound 884111] | 1000 to 5000 nM | > 5000 nM
CC1CC(=O)C2=C(C1)NC1=C(CN=N1)C21CCOCC1 (centres undefined) [US20250313563, Compound 884112] | 100 to 1000 nM | 100 to 1000 nM
C[C@@H]1C[C@H](C)C[C@]2(C1)C1=C(N=NC1)NC1=C2C(=O)CC(C)(C)C1 [US20250313563, Compound 884113] | 100 to 1000 nM | 1000 to 5000 nM
C[C@@H]1C[C@H](C)C[C@@]2(C1)C1=C(N=NC1)NC1=C2C(=O)CC(C)(C)C1 [US20250313563, Compound 884114] | 100 to 1000 nM | 100 to 1000 nM
CC[C@]1(c2cccc(N3CCCCC3)c2)C2=C(CC(C)(C)CC2=O)NC2N=NC(C)=C21 (some centres undefined) [US20250313563, Compound 884115] | 100 to 1000 nM | 100 to 1000 nM
CC[C@@]1(c2cccc(N3CCCCC3)c2)C2=C(CC(C)(C)CC2=O)NC2N=NC(C)=C21 (some centres undefined) [US20250313563, Compound 884116] | < 100 nM and 100 to 1000 nM | < 100 nM and 100 to 1000 nM
CC[C@@]1(c2cccc(OC)c2)C2=C(CC(C)(C)CC2=O)NC2N=NC(C(F)(F)F)=C21 (some centres undefined) [US20250313563, Compound 884117] | < 100 nM | < 100 nM and 100 to 1000 nM
CC[C@]1(c2cccc(OC)c2)C2=C(CC(C)(C)CC2=O)NC2N=NC(C(F)(F)F)=C21 (some centres undefined) [US20250313563, Compound 884118] | 100 to 1000 nM | 1000 to 5000 nM
CO[C@H]1CC[C@@]2(CC1)C1=C(N=NC1)NC1=C2C(=O)CC(C)(C)C1 [US20250313563, Compound 884119] | < 100 nM | 100 to 1000 nM
CO[C@H]1CC[C@]2(CC1)C1=C(N=NC1)NC1=C2C(=O)CC(C)(C)C1 [US20250313563, Compound 884120] | 100 to 1000 nM | 100 to 1000 nM
CCC1(c2cccc(N3CCCCCC3)c2)C2=CN=NC2NC2=C1C(=O)CC(C)(C)C2 (centres undefined) [US20250313563, Compound 885088] | 100 to 1000 nM | 100 to 1000 nM
CCC1(c2cccc(N3CC4CCC(C4)C3)c2)C2=CN=NC2NC2=C1C(=O)CC(C)(C)C2 (centres undefined) [US20250313563, Compound 885099] | 100 to 1000 nM | 1000 to 5000 nM
CCC1(c2cccc(N3CC4CCC3C4)c2)C2=CN=NC2NC2=C1C(=O)CC(C)(C)C2 (centres undefined) [US20250313563, Compound 885110] | < 100 nM | 100 to 1000 nM
CCC1(c2cccc(N3CC4CCC3CC4)c2)C2=CN=NC2NC2=C1C(=O)CC(C)(C)C2 (centres undefined) [US20250313563, Compound 885120] | < 100 nM | 100 to 1000 nM
CCC1(c2cccc(N3CCC[C@@H]3C)c2)C2=CN=NC2NC2=C1C(=O)CC(C)(C)C2 (some centres undefined) [US20250313563, Compound 885188] | 100 to 1000 nM | 100 to 1000 nM
CCC1(c2cccc(N3CCCC[C@@H]3C)c2)C2=CN=NC2NC2=C1C(=O)CC(C)(C)C2 (some centres undefined) [US20250313563, Compound 885217] | 100 to 1000 nM | 100 to 1000 nM
CCC1(c2cccc(N3CCCC[C@H]3C)c2)C2=CN=NC2NC2=C1C(=O)CC(C)(C)C2 (some centres undefined) [US20250313563, Compound 885228] | < 100 nM | 100 to 1000 nM
